From US12692253B2, “Antimicrobial compounds and methods” (Curza Global, LLC, priority 2019, dated 2026) come the findings set out here.

As usually defined, the MIC is the lowest concentration found to suppress growth.

The target of test [1] is Rabbit Reticulocyte Lysate (eukaryotic protein synthesis). Description: Rabbit reticulocyte lysate luciferase assay (inhibition of eukaryotic protein synthesis). The class given is biochemical. The settings on record: class by IC50 or % inhibition @ 1 μM, read-out: Rabbit reticulocyte IC50 (μM/% inhib.). A digest of the protocol:
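In vitro translation of luciferase control RNA in nuclease-treated rabbit reticulocyte lysate with amino acid mixture, compounds in 2-fold serial dilution, 90 minutes at 30° C. Luminescence read after luciferase reagent; % inhibition relative to water no-inhibitor controls, with no-RNA background wells.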

Test [2] deals with E. coli S30 extract (bacterial protein synthesis). Description: E. coli S30 extract coupled transcription-translation luciferase assay (inhibition of bacterial protein synthesis). In kind it is biochemical. Particulars: class by IC50 or % inhibition @ 1 μM, read-out: S30 IC50 (μM/% inhib.). A digest of the protocol:
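Coupled transcription-translation in E. coli S30 circular-DNA extract expressing luciferase from pBESTluc, with 8-point 2-fold compound dilutions; 1 hour at 37 °C, stopped at 4 °C. Luminescence read; % inhibition versus no-inhibitor wells, no-DNA wells as background.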

In the next test the test system is E. coli (Ec). Description: Broth microdilution minimum inhibitory concentration (MIC), CLSI. In kind it is cell-based. The settings on record: Escherichia coli, growth medium supplemented with sodium bicarbonate, read-out: E. coli + bicarb MIC. Put shortly: (§1)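 CLSI M07-A9 broth microdilution, slightly modified: 8 two-fold compound dilutions in triplicate, CAMHB ± bicarbonate (6.25 or 25 mM final) or 0-50% heat-inactivated human serum; 5×10^4 CFU/well.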
Background: Dilution methods test growth across graded concentrations, often in twofold steps.

A further test concerns S. aureus (Sa). The test is described as above. The class given is cell-based. Particulars: Staphylococcus aureus, growth medium supplemented with sodium bicarbonate, read-out: Sa + bicarb MIC. Put shortly:
as §1

The next test has as its system A. baumannn (Ab). The description is as above. The class given is cell-based. The settings on record: Acinetobacter baumannii, read-out: Ab + bicarb MIC. A digest of the protocol:
as §1

The test system of the next test is E. faecalis (Ef). Described as above. The class given is cell-based. The settings on record: Enterococcus faecalis, growth medium supplemented with sodium bicarbonate, read-out: Ef + bicarb MIC. Put shortly: as §1
In another test the test system is P. aeruginosa (Pa). The description is as above. The class given is cell-based. The settings on record: Pseudomonas aeruginosa, growth medium supplemented with sodium bicarbonate, read-out: Pa MIC + bicarb. A digest of the protocol:
as §1

As for `N[C@@H]1[C@H]2CN(Cc3ccc(-n4ccc(NC(=O)N5CCC6(CCNCC6)CC5)nc4=O)cc3)C[C@@H]12` [Compound 62], the IC50 in test [1] and in test [2] was not below 1 µM throughout. Besides, the MIC was less than 8 µg/mL in the test on E. coli (Ec); less than 8 µg/mL in the test with S. aureus (Sa); more than 32 µg/mL with A. baumannn (Ab); 8 to 32 µg/mL in the test with E. faecalis (Ef); more than 32 µg/mL with P. aeruginosa (Pa).

For `N[C@@H]1[C@H]2CN(Cc3ccc(-n4ccc(NC(=O)N5CCC6(CCNC6)C5)nc4=O)cc3)C[C@@H]12` (stereo partly drawn) [Compound 63], the IC50 in test [1] and in test [2] was not below 1 µM each time. In addition, the MIC in the test with E. coli (Ec), in the test on S. aureus (Sa), in the test with A. baumannn (Ab), in the test with E. faecalis (Ef) and in the test on P. aeruginosa (Pa) was more than 32 µg/mL throughout.

Take `NC1CCC12CCN(C(=O)Nc1ccn(-c3ccc(CN4C[C@@H]5[C@@H](N)[C@@H]5C4)cc3)c(=O)n1)CC2` (stereo partly drawn) [Compound 64]: the IC50 in test [1] and in test [2] was not below 1 µM each time. Moreover, the MIC with E. coli (Ec) is 8 to 32 µg/mL; with S. aureus (Sa) it was 8 to 32 µg/mL; with A. baumannn (Ab) it was more than 32 µg/mL; with E. faecalis (Ef), 8 to 32 µg/mL; with P. aeruginosa (Pa), more than 32 µg/mL.

For `CC(C)(N)C(=O)N1CCN(C(=O)Nc2ccn(-c3ccc(CN4C[C@@H]5[C@@H](N)[C@@H]5C4)cc3)c(=O)n2)CC1` [Compound 65], the IC50 was not below 1 µM in test [1] and less than 0.5 µM in test [2]. The MIC was less than 8 µg/mL with E. coli (Ec); less than 8 µg/mL with S. aureus (Sa); 8 to 32 µg/mL in the test on A. baumannn (Ab); less than 8 µg/mL in the test with E. faecalis (Ef); more than 32 µg/mL in the test with P. aeruginosa (Pa).

On to `CC(C)(N)C(=O)N1CCN(C(=O)Nc2ccn(-c3ccc(CN4C[C@@H]5[C@@H](N)[C@@H]5[C@H]4CO)cc3)c(=O)n2)CC1` [Compound 66], for which the results for the IC50 in test [1] and in test [2] were not below 1 µM and 0.5 to 1 µM, respectively. The minimum inhibitory concentration (MIC) in the test on E. coli (Ec) is less than 8 µg/mL; with S. aureus (Sa), 8 to 32 µg/mL; in the test with A. baumannn (Ab) it was more than 32 µg/mL; in the test with E. faecalis (Ef) it was more than 32 µg/mL; in the test with P. aeruginosa (Pa) it was more than 32 µg/mL.

Regarding `CC(c1ccc(-n2ccc(NC(=O)N3CCN(C(=O)C(C)(C)N)CC3)nc2=O)cc1)N1C[C@@H]2[C@@H](N)[C@@H]2C1` (stereo partly drawn) [Compound 67], the figures for the IC50 in test [1] and in test [2] were not below 1 µM and less than 0.5 µM, respectively. The minimal inhibitory concentration (MIC) with E. coli (Ec) is less than 8 µg/mL; with S. aureus (Sa) it was less than 8 µg/mL; in the test on A. baumannn (Ab), more than 32 µg/mL; in the test on E. faecalis (Ef), less than 8 µg/mL; in the test on P. aeruginosa (Pa) it was more than 32 µg/mL.

Consider `CC(C)(N)C(=O)N1CCN(C(=O)Nc2ccn(-c3ccc(CN4C[C@@H]5[C@@H](CN)[C@@H]5C4)cc3)c(=O)n2)CC1` [Compound 68], for which the figures for the IC50 in test [1] and in test [2] were not below 1 µM and less than 0.5 µM, respectively. In addition, the minimal inhibitory concentration (MIC) in the test with E. coli (Ec) was less than 8 µg/mL; in the test with S. aureus (Sa), less than 8 µg/mL; in the test on A. baumannn (Ab), more than 32 µg/mL; in the test on E. faecalis (Ef) it was more than 32 µg/mL; in the test with P. aeruginosa (Pa), more than 32 µg/mL.

In the case of `CC(N)[C@H]1[C@@H]2CN(Cc3ccc(-n4ccc(NC(=O)N5CCN(C(=O)C(C)(C)N)CC5)nc4=O)cc3)C[C@@H]21` (stereo partly drawn) [Compound 73], the IC50 was not below 1 µM in test [1] and less than 0.5 µM in test [2]. Besides, the MIC with E. coli (Ec) is less than 8 µg/mL; with S. aureus (Sa) it was less than 8 µg/mL; with A. baumannn (Ab), more than 32 µg/mL; with E. faecalis (Ef) it was 8 to 32 µg/mL; in the test on P. aeruginosa (Pa), more than 32 µg/mL.

`CC(C)(N)C(=O)N1CCN(C(=O)Nc2ccn(-c3ccc(CN4C[C@@H]5[C@H](C4)[C@H]5C(N)=O)cc3)c(=O)n2)CC1` [Compound 74]: the IC50 in test [1] and in test [2] was not below 1 µM each time. Further, the minimum inhibitory concentration (MIC) in the test with E. coli (Ec) is 8 to 32 µg/mL; in the test with S. aureus (Sa) it was 8 to 32 µg/mL; in the test on A. baumannn (Ab) it was more than 32 µg/mL; in the test on E. faecalis (Ef) it was more than 32 µg/mL; with P. aeruginosa (Pa), more than 32 µg/mL.

In the case of `CNC[C@@H]1[C@H]2CN(Cc3ccc(-n4ccc(NC(=O)N5CCN(C(=O)C(C)(C)N)CC5)nc4=O)cc3)C[C@@H]12` [Compound 75], the IC50 in test [1] is not below 1 µM; in test [2] it was less than 0.5 µM. For the same compound, the MIC was less than 8 µg/mL with E. coli (Ec); less than 8 µg/mL in the test with S. aureus (Sa); more than 32 µg/mL in the test with A. baumannn (Ab); 8 to 32 µg/mL with E. faecalis (Ef); more than 32 µg/mL in the test with P. aeruginosa (Pa).

For `CC(C)(N)C(=O)N1CCN(C(=O)Nc2ccn(-c3ccc(CN4CCC5(CCNC5)C4)cc3)c(=O)n2)CC1` (stereo not drawn) [Compound 80], the IC50 was not below 1 µM in test [1] and less than 0.5 µM in test [2]. In addition, the MIC in the test on E. coli (Ec) was less than 8 µg/mL; with S. aureus (Sa) it was less than 8 µg/mL; in the test with A. baumannn (Ab), more than 32 µg/mL; with E. faecalis (Ef), more than 32 µg/mL; with P. aeruginosa (Pa), more than 32 µg/mL.

Regarding `CC(C)(N)C(=O)N1CCN(C(=O)Nc2ccn(-c3ccc(CN4CCC5(CC4)CNC5)cc3)c(=O)n2)CC1` [Compound 83], the IC50 was not below 1 µM in test [1] and 0.5 to 1 µM in test [2]. Moreover, the minimal inhibitory concentration (MIC) in the test on E. coli (Ec) is less than 8 µg/mL; in the test on S. aureus (Sa) it was less than 8 µg/mL; in the test with A. baumannn (Ab), more than 32 µg/mL; in the test with E. faecalis (Ef), more than 32 µg/mL; in the test with P. aeruginosa (Pa), more than 32 µg/mL.

In the case of `CC(C)(N)C(=O)N1CCN(C(=O)Nc2ccn(-c3ccc(CCN4CCC5(CC4)CC5N)cc3)c(=O)n2)CC1` (stereo not drawn) [Compound 94], the IC50 was not below 1 µM in test [1] and less than 0.5 µM in test [2]. For the same compound, the MIC in the test with E. coli (Ec) is less than 8 µg/mL; with S. aureus (Sa) it was less than 8 µg/mL; in the test on A. baumannn (Ab), more than 32 µg/mL; in the test with E. faecalis (Ef) it was 8 to 32 µg/mL; in the test with P. aeruginosa (Pa) it was 8 to 32 µg/mL.

Regarding `CC(C)(N)C(=O)N1CCN(C(=O)Nc2ccn(-c3ccc(CCN4CCC5(CCC5N)CC4)cc3)c(=O)n2)CC1` (stereo not drawn) [Compound 95], the results for the IC50 in test [1] and in test [2] were not below 1 µM and less than 0.5 µM, respectively. Besides, the minimum inhibitory concentration (MIC) in the test with E. coli (Ec) is less than 8 µg/mL; in the test with S. aureus (Sa), less than 8 µg/mL; in the test with A. baumannn (Ab) it was more than 32 µg/mL; in the test with E. faecalis (Ef), more than 32 µg/mL; with P. aeruginosa (Pa) it was more than 32 µg/mL.

Turning to `CC(C)(N)C(=O)N1CCN(C(=O)Nc2ccn(-c3ccc(CCN4CC5CC(N)C5C4)cc3)c(=O)n2)CC1` (stereo not drawn) [Compound 96], the IC50 was not below 1 µM in test [1] and less than 0.5 µM in test [2]. Moreover, the minimum inhibitory concentration (MIC) in the test with E. coli (Ec) was less than 8 µg/mL; with S. aureus (Sa), less than 8 µg/mL; with A. baumannn (Ab), more than 32 µg/mL; in the test on E. faecalis (Ef), less than 8 µg/mL; in the test on P. aeruginosa (Pa) it was 8 to 32 µg/mL.

Turning to `C[C@@](N)(CO)C(=O)N1CCN(C(=O)Nc2ccn(-c3ccc(CCN4CCC5CC5(N)C4)cc3)c(=O)n2)CC1` (stereo partly drawn) [Compound 99], the IC50 in test [1] was not below 1 µM; in test [2], 0.5 to 1 µM. Also, the MIC in the test on E. coli (Ec) is less than 8 µg/mL; with S. aureus (Sa), less than 8 µg/mL; in the test on A. baumannn (Ab) it was more than 32 µg/mL; in the test with E. faecalis (Ef) it was 8 to 32 µg/mL; in the test on P. aeruginosa (Pa) it was more than 32 µg/mL.

As for `CC(C)(N)C(=O)N1CCN(C(=O)Nc2ccn(-c3ccc(CCN4CCC5CC5(N)C4)c(F)c3)c(=O)n2)CC1` (stereo not drawn) [Compound 100], the IC50 in test [1] was not below 1 µM; in test [2], less than 0.5 µM. For the same compound, the MIC in the test with E. coli (Ec) is less than 8 µg/mL; with S. aureus (Sa), less than 8 µg/mL; in the test on A. baumannn (Ab) it was 8 to 32 µg/mL; in the test on E. faecalis (Ef), less than 8 µg/mL; with P. aeruginosa (Pa) it was more than 32 µg/mL.

Take `Cc1cc(-n2ccc(NC(=O)N3CCN(C(=O)C(C)(C)N)CC3)nc2=O)ccc1CCN1CCC2CC2(N)C1` (stereo not drawn) [Compound 101]: the results for the IC50 in test [1] and in test [2] were not below 1 µM and less than 0.5 µM, respectively. Further, the minimal inhibitory concentration (MIC) with E. coli (Ec) is less than 8 µg/mL; in the test on S. aureus (Sa), less than 8 µg/mL; in the test with A. baumannn (Ab), 8 to 32 µg/mL; with E. faecalis (Ef) it was less than 8 µg/mL; in the test on P. aeruginosa (Pa) it was more than 32 µg/mL.
